Results taken from patent US20230126361A1, “METHODS OF CONTROLLING OR PREVENTING INFESTATION OF PLANTS BY THE PHYTOPATHOGENIC MICROORGANISM CORYNESPORA CASSIICOLA, […] AND/OR […]” (SYNGENTA CROP PROTECTION AG, priority 2020, published 2023).

Key:
Type in all cases: cell-based
Details in all cases: PDB, 24° C., 3-4 days, 620 nm
Corynespora cassiicola = Corynespora cassiicola (target leaf spot) liquid culture growth inhibition
Procedure: Conidia of the fungus from cryogenic storage were directly mixed into nutrient broth (PDB potato dextrose broth). A DMSO solution of the test compounds was placed into a microtiter plate (96-well format) and the nutrient broth containing the fungal spores was added to it. The test plates were incubated at 24° C. and the inhibition of growth (% control of Corynespora cassiicola) was determined photometrically after 3-4 days at 620 nm. The activity of a compound is derived by comparing the inhibition of growth in the treated test solution to the growth in the untreated check. […]

Cercospora sojina = Cercospora sojina (frogeye leaf spot) liquid culture growth inhibition
Procedure: (§1) Conidia of the fungus from cryogenic storage were directly mixed into nutrient broth (PDB potato dextrose broth). A DMSO solution of the test compounds was placed into a microtiter plate (96-well format) and the nutrient broth containing the fungal spores was added to it. The test plates were incubated at 24° C. and the inhibition of growth was determined photometrically after 3-4 days at 620 nm.

Cercospora kikuchii = Cercospora kikuchii (leaf blight) liquid culture growth inhibition
Procedure: as §1

Cc1nc2c(F)c(F)ccc2cc1Oc1cccc(F)c1C(C)(C)O [2-[2-(7,8-difluoro-2-methylquinolin-3-yloxy)-6-fluorophenyl]propan-2-ol]
at least 90%: % control of Corynespora cassiicola (Corynespora cassiicola; 6.7 ppm)
at least 50%: % control of Corynespora cassiicola (Corynespora cassiicola; 0.74 ppm) | % control of Cercospora sojina (Cercospora sojina; 2.2 ppm) | % control of Cercospora sojina (Cercospora sojina; 6.7 ppm) | % control of Cercospora kikuchii (Cercospora kikuchii; 2.2 ppm) | % control of Cercospora kikuchii (Cercospora kikuchii; 6.7 ppm)
at least 20%: % control of Corynespora cassiicola (Corynespora cassiicola; 0.027 ppm) | % control of Corynespora cassiicola (Corynespora cassiicola; 0.25 ppm) | % control of Cercospora sojina (Cercospora sojina; 0.25 ppm) | % control of Cercospora sojina (Cercospora sojina; 0.74 ppm) | % control (Example 3: Cercospora kikuchii) (Cercospora kikuchii; 0.74 ppm)
at least 70%: % control of Corynespora cassiicola (Corynespora cassiicola; 2.2 ppm)
